# Results: patent EP4692091A1, “CA[…], AND PHARMACEUTICAL COMPOSITION, PREPARATION METHOD THEREFOR AND USE THEREOF” (Changchun Genescience Pharmaceutical Co., Ltd., priority 2023, dated 2024)
# Columns and labels:
# MDA-MB-468 = assay: Inhibition of proliferation of MDA-MB-468 cells by test compounds (CellTiter-Glo, 72 h); assay type: cell-based; details: Homo sapiens, MDA-MB-468, 72 h, MDA-MB-468, 72 h incubation
# In short: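 Cells plated, allowed to adhere, then treated with compounds (final DMSO 0.33%) for 72 h at 37°C. Viability read by CellTiter-Glo luminescence after 30 min at room temperature; IC50 from four-parameter nonlinear fit.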
# [1] = Pharmacokinetic test in SD rats; assay type: in vivo; details: rat, 2 mg/kg, male SD rats, single intravenous injection, 2 mpk, plasma
# Experimental: After a single intravenous injection (dose: 2 mpk) of the compounds 6-2, 11-2, 17-2, and Dxd into male SD rats (blood collection time points: 0.083 h, 0.25 h, 0.5 h, 1 h, 2 h, 4 h, 8 h, and 24 h after IV administration, totaling 8 blood collection time points), average pharmacokinetic parameters in the plasma are as shown in Table 5: Table 5 Pharmacokinetic test result of representative compounds
# [2] = Stability of compounds in human plasma; assay type: in vitro ADME; details: 37°C, 5 µmol/L
# Experimental: • (1) 199 µL of human plasma was added to the culture plate of each cell. The culture plate was preheated to 37°C, and kept at this temperature for 15 min. • (2) After preincubation, 1 µL of 1 mmol/L each test compound and 1 µL of 1 mmol/L control compound were added to 199 µL of plasma, so that a final concentration of each test compound was 5 µmol/L and that of the control compound was 5 µmol/L. The final concentration of the organic solvent was 0.5%. The experiment would be duplicated twice. • (3) Reaction samples were incubated at 37°C. • (4) The reaction was stopped by adding 600 µL of cold methanol containing the internal standard at 0, 1, 2, 6, and 24 h. Each sample was vortex mixed for 10 min, and then centrifuged at 3,220 g for 30 min to precipitate the protein. […] Based on the signal response and peak shapes of liquid chromatography-mass spectrometry (LC-MS), the supernatant would be diluted with ultrapure water.
# All calculations were performed using Microsoft Excel. The peak area ratio was determined from the chromatogram of extracted ions. The percentage of compounds remaining at each time point was calculated as per the following formula: Residual percentagetmin (%) = peak area ratiotmin /peak areat0 × 100 [formula]
# NCI-N87 = assay: Inhibition of proliferation of NCI-N87 cells by test compounds (CellTiter-Glo, 72 h); assay type: cell-based; details: Homo sapiens, NCI-N87, 72 h, NCI-N87, 72 h incubation
# In short: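 NCI-N87 cells were treated after adhesion with compound (final DMSO 0.33%) for 72 h at 37°C. Viability was read as CellTiter-Glo luminescence, and IC50 came from a four-parameter nonlinear fit.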
# [3] = Kinetic solubility test in PBS 7.4; assay type: physicochemical; details: pH 7.4, aqueous buffer
# Experimental: 10 mM stock solutions of the test substances 6-2, 11-2, 17-2, Dxd, and the control drugs progesterone and diclofenac were prepared using DMSO respectively.
# 15 µL of 10 mM stock solution of each of the test substances was added to a corresponding position of a corresponding 96-well plate in a specified sequence. 485 µL of the PBS 7.4 was added to a corresponding vial on a sample plate. The experiment was run in duplicate. Each vial was additionally provided with a stirring rod and was plugged. Then, the sample plate was transferred in a thermostatic mixer, and oscillated at a revolving speed of 1,100 rpm at 25°C for 2 h. 2 h later, the plug was removed, the stirring rod was attracted away with a large magnet, and then the sample was transferred from the sample plate to the filter plate. Negative pressure was generated using a vacuum pump to filter the sample. 5 µL of filtrate and 5 µL of blank DMSO were transferred to another sample plate, and then 490 µL of internal standard water (acetonitrile:water=1:1) containing the internal standard was added. Depending on peak shapes, a certain proportion of internal standard water may be used to dilute the sample diluent to give better peak shapes. […]
# The sample filtrate was analyzed and quantified by qualitative and quantitative LC/MS of standard substance peaks at known concentrations. […]
smiles,measurement,setting,value
CC[C@@]1(O)C(=O)OCc2c1cc1n(c2=O)Cc2c-1nc1cc(F)c(C)c3c1c2[C@@H](NC(=O)CO)CC3 [Dxd],IC50,MDA-MB-468,4.6 nM
same,AUC(0-inf),[1],302 ng·h/mL
same,AUC(0-t),[1],301 ng·h/mL
same,C0,[1],748 ng/mL
same,clearance,[1],113 mL/min/kg
same,half-life,[1],23.4 min
same,Vd,[1]; read-out: Vss,2.7 L/kg
same,Residual percentage (%),[2]; 0 h,100.00%
same,"remaining at 1 h, 5 µM","[2]; 1 h, read-out: Residual percentage (%)",89.4%
same,"remaining at 2 h, 5 µM","[2]; 2 h, read-out: Residual percentage (%)",86.8%
same,"remaining at 6 h, 5 µM","[2]; 6 h, read-out: Residual percentage (%)",86.4%
same,"remaining at 24 h, 5 µM","[2]; 24 h, read-out: Residual percentage (%)",82.3%
same,IC50,NCI-N87,11 nM
same,solubility at 2 h,[3],11.3 µM
